We go through 19 molecules from ChEMBL document CHEMBL1130171, “Structure--activity studies for alpha-amino-3-hydroxy-5-methyl-4-isoxazolepropanoic acid receptors: acidic hydroxyphenylalanines” (J Med Chem, 1997).

For orientation: pKa means the negative logarithm of the acid dissociation constant. A lower pKa goes with a stronger acid or weaker base. One may read the EC50 as the midpoint of the concentration-response curve. Read a low EC50 as a more potent agent. One may read the IC50 as the concentration at which inhibition is half-maximal.

Data set [1] in a line: Protolysis constant at an ionic strength of 0.1 M. The data set is classed as ADME.
The species named for data set [2] is Rattus norvegicus. Description: In vitro stimulation of norepinephrine release from hippocampal nerve endings. To be noted: Hippocampus. It is filed as functional.
The species named for data set [3] is Rattus norvegicus. Briefly: Inhibition of stimulation of NE release by 100 uM of AMPA. It is filed as functional.
Data set [4] has as its target Glutamate receptor ionotropic, AMPA (Rattus norvegicus, UniProt P19490+P19491+P19492+P19493). Briefly: Inhibition of specific binding of [3H]AMPA to Ionotropic glutamate receptor AMPA in rat brain membranes. It is filed as cell membranes.

Take `NC(Cn1ccc(=O)[nH]c1=O)C(=O)O` (racemic): the pKa in data set [1] came out at 9.3. The same measure, in the same setting: next, `Cc1cc([N+](=O)[O-])ccc1O`: 7.2.

With `NC(Cc1cc(O)ccc1[N+](=O)[O-])C(=O)O` (centres undefined), the pKa in data set [1] stood at 6.8. In data set [2], `C=C(C)[C@H]1CN[C@H](C(=O)O)[C@H]1CC(=O)O` [KAINIC ACID] showed an EC50 of 3.7 µM. `NC(Cc1cc(O)c([N+](=O)[O-])cc1[N+](=O)[O-])C(=O)O` (centres undefined) came in with a pKa in data set [1] of 3.8. Molecule `Cc1onc(O)c1C[C@H](N)C(=O)O` [(S)-AMPA] showed an EC50 in data set [2] of 6.7 µM. The molecule `O=[N+]([O-])c1cc2nc(O)c(O)nc2cc1[N+](=O)[O-]` [DNQX] displayed an IC50 in data set [3] of 41 µM. Consider `NC(Cc1ccc(O)c([N+](=O)[O-])c1)C(=O)O` (centres undefined), for which the pKa in data set [1] amounted to 6.8. Still for that read-out and setting: next, `N[C@@H](Cc1cc([N+](=O)[O-])c(O)c([N+](=O)[O-])c1)C(=O)O`: 3.2. Same read-out and setting: next, `Cc1cccc([N+](=O)[O-])c1O`: 7.7; `O=C(O)C(O)Cc1cc([N+](=O)[O-])cc([N+](=O)[O-])c1O` (centres undefined): 4.2. `NC(Cc1c([N+](=O)[O-])ccc(O)c1[N+](=O)[O-])C(=O)O` (centres undefined) returned a pKa in data set [1] of 3.6.

In the case of `NC(Cc1cc([N+](=O)[O-])ccc1O)C(=O)O` (centres undefined), the pKa in data set [1] worked out at 6.4. In the case of `NC(Cc1cc([N+](=O)[O-])cc([N+](=O)[O-])c1O)C(=O)O` (centres undefined), the 50% inhibitory concentration (IC50) in data set [4] amounted to 25 µM; in data set [3], 730 µM. For the same molecule, the pKa in data set [1] stood at 6.4. In data set [1], `NC(Cc1ccccc1O)C(=O)O` (centres undefined) had a pKa of 8.67. Still for that read-out and setting: the figure for `NC(Cc1cccc([N+](=O)[O-])c1O)C(=O)O` (centres undefined) is 6.6. In turn, `NC(Cn1cc([N+](=O)[O-])c(=O)[nH]c1=O)C(=O)O` (centres undefined) yielded an EC50 in data set [2] of 15 µM. The molecule also showed a pKa in data set [1] of 6.4. `NC(Cc1ccc([N+](=O)[O-])c(O)c1)C(=O)O` (centres undefined): the pKa in data set [1] stood at 6.6. `NC(Cc1ccc([N+](=O)[O-])c(O)c1[N+](=O)[O-])C(=O)O` (centres undefined) displayed an IC50 in data set [4] of 4.9 µM. The molecule further had an EC50 in data set [2] of 74 µM. This molecule also yielded a pKa in data set [1] of 3.2.
